Data from PubChem BioAssay (NCI).
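1) Cells in 96-well plates. 2) Compound, 48 h, 5 concentrations. 3) Linear interpolation between surrounding doses. 4) Unreached endpoint = highest concentration. GI50 marks 50% less growth. The concentration for full growth arrest is given as TGI.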

Columns and labels:
Assay in all cases: NCI-60 cell line screen, 48 h
786-0 renal = system: 786-0 renal
A498 renal = system: A498 renal
A549 NSCLC = system: A549 NSCLC
ACHN renal = system: ACHN renal
BT-549 breast = system: BT-549 breast
CAKI-1 renal = system: CAKI-1 renal
CCRF-CEM leukemia = system: CCRF-CEM leukemia
COLO 205 colon = system: COLO 205 colon
DU-145 prostate = system: DU-145 prostate
EKVX NSCLC = system: EKVX NSCLC
HCC-2998 colon = system: HCC-2998 colon
HCT-116 colon = system: HCT-116 colon
HCT-15 colon = system: HCT-15 colon
HL-60(TB) leukemia = system: HL-60(TB) leukemia
HOP-62 NSCLC = system: HOP-62 NSCLC
HOP-92 NSCLC = system: HOP-92 NSCLC
HS 578T breast = system: HS 578T breast
HT29 colon = system: HT29 colon
IGROV1 ovarian = system: IGROV1 ovarian
K-562 leukemia = system: K-562 leukemia
KM12 colon = system: KM12 colon
LOX IMVI melanoma = system: LOX IMVI melanoma
M14 melanoma = system: M14 melanoma
MALME-3M melanoma = system: MALME-3M melanoma
MCF7 breast = system: MCF7 breast
MDA-MB-231 breast = system: MDA-MB-231 breast
MDA-MB-435 = system: MDA-MB-435
MDA-MB-468 breast = system: MDA-MB-468 breast
MOLT-4 leukemia = system: MOLT-4 leukemia
NCI-H226 lung = system: NCI-H226 lung
NCI-H23 lung = system: NCI-H23 lung
NCI-H460 lung = system: NCI-H460 lung
NCI-H522 lung = system: NCI-H522 lung
NCI/ADR-RES ovarian = system: NCI/ADR-RES ovarian
OVCAR-3 ovarian = system: OVCAR-3 ovarian
OVCAR-4 ovarian = system: OVCAR-4 ovarian
OVCAR-5 ovarian = system: OVCAR-5 ovarian
OVCAR-8 ovarian = system: OVCAR-8 ovarian
PC-3 prostate = system: PC-3 prostate
RPMI-8226 leukemia = system: RPMI-8226 leukemia
RXF 393 renal = system: RXF 393 renal
SF-268 CNS = system: SF-268 CNS
SF-295 CNS = system: SF-295 CNS
SF-539 CNS = system: SF-539 CNS
SK-MEL-2 melanoma = system: SK-MEL-2 melanoma
SK-MEL-28 melanoma = system: SK-MEL-28 melanoma
SK-MEL-5 melanoma = system: SK-MEL-5 melanoma
SK-OV-3 ovarian = system: SK-OV-3 ovarian
SN12C renal = system: SN12C renal
SNB-19 CNS = system: SNB-19 CNS
SNB-75 CNS = system: SNB-75 CNS
SR leukemia = system: SR leukemia
SW-620 colon = system: SW-620 colon
T-47D breast = system: T-47D breast
TK-10 renal = system: TK-10 renal
U251 CNS = system: U251 CNS
UACC-257 melanoma = system: UACC-257 melanoma
UACC-62 melanoma = system: UACC-62 melanoma
UO-31 renal = system: UO-31 renal

CC(=C(c1ccc(OCCN2CCCCCC2)cc1)c1ccc(OCCN2CCCCCC2)cc1)c1ccc(Cl)cc1
GI50 (786-0 renal): 3.62 µM
TGI (786-0 renal): 10.5 µM
GI50 (A498 renal): 5.47 µM
TGI (A498 renal): 11 µM
GI50 (A549 NSCLC): 4.64 µM
TGI (A549 NSCLC): 12.1 µM
GI50 (ACHN renal): 5.9 µM
TGI (ACHN renal): 11.2 µM
GI50 (BT-549 breast): 7.09 µM
TGI (BT-549 breast): 13.3 µM
GI50 (CAKI-1 renal): 4.69 µM
TGI (CAKI-1 renal): 9.75 µM
GI50 (CCRF-CEM leukemia): 1.11 µM
TGI (CCRF-CEM leukemia): 3.88 µM
GI50 (COLO 205 colon): 0.813 µM
TGI (COLO 205 colon): 1.62 µM
GI50 (DU-145 prostate): 5.19 µM
TGI (DU-145 prostate): 10.4 µM
GI50 (EKVX NSCLC): 5.77 µM
TGI (EKVX NSCLC): 11.5 µM
GI50 (HCC-2998 colon): 1.05 µM
TGI (HCC-2998 colon): 3.86 µM
GI50 (HCT-116 colon): 1.49 µM
TGI (HCT-116 colon): 6.22 µM
GI50 (HCT-15 colon): 1.48 µM
TGI (HCT-15 colon): 5.7 µM
GI50 (HL-60(TB) leukemia): 1.32 µM
TGI (HL-60(TB) leukemia): 9.39 µM
GI50 (HOP-62 NSCLC): 5.77 µM
TGI (HOP-62 NSCLC): 11.6 µM
GI50 (HOP-92 NSCLC): 2.01 µM
TGI (HOP-92 NSCLC): 8.1 µM
GI50 (HS 578T breast): 5.25 µM
TGI (HS 578T breast): 13.3 µM
GI50 (HT29 colon): 0.942 µM
TGI (HT29 colon): 2.55 µM
GI50 (IGROV1 ovarian): 5.09 µM
TGI (IGROV1 ovarian): 10.3 µM
GI50 (K-562 leukemia): 0.908 µM
TGI (K-562 leukemia): 40.7 µM
GI50 (KM12 colon): 4.56 µM
TGI (KM12 colon): 10.1 µM
GI50 (LOX IMVI melanoma): 0.776 µM
TGI (LOX IMVI melanoma): 1.61 µM
GI50 (M14 melanoma): 0.838 µM
TGI (M14 melanoma): 1.85 µM
GI50 (MALME-3M melanoma): 0.745 µM
TGI (MALME-3M melanoma): 1.66 µM
GI50 (MCF7 breast): 0.654 µM
TGI (MCF7 breast): 1.77 µM
GI50 (MDA-MB-231 breast): 4.19 µM
TGI (MDA-MB-231 breast): 8.99 µM
GI50 (MDA-MB-435): 0.807 µM
TGI (MDA-MB-435): 1.9 µM
GI50 (MDA-MB-468 breast): 1.3 µM
TGI (MDA-MB-468 breast): 6.08 µM
GI50 (MOLT-4 leukemia): 1.08 µM
TGI (MOLT-4 leukemia): 3.33 µM
GI50 (NCI-H226 lung): 5.96 µM
TGI (NCI-H226 lung): 12.6 µM
GI50 (NCI-H23 lung): 5.58 µM
TGI (NCI-H23 lung): 11.1 µM
GI50 (NCI-H460 lung): 1.37 µM
TGI (NCI-H460 lung): 5.14 µM
GI50 (NCI-H522 lung): 4.84 µM
TGI (NCI-H522 lung): 10.1 µM
GI50 (NCI/ADR-RES ovarian): 5.82 µM
TGI (NCI/ADR-RES ovarian): 11.6 µM
GI50 (OVCAR-3 ovarian): 2.83 µM
TGI (OVCAR-3 ovarian): 8.44 µM
GI50 (OVCAR-4 ovarian): 5.76 µM
TGI (OVCAR-4 ovarian): 11.7 µM
GI50 (OVCAR-5 ovarian): 5 µM
TGI (OVCAR-5 ovarian): 10.1 µM
GI50 (OVCAR-8 ovarian): 7.95 µM
TGI (OVCAR-8 ovarian): 18.5 µM
GI50 (PC-3 prostate): 4.53 µM
TGI (PC-3 prostate): 10 µM
GI50 (RPMI-8226 leukemia): 1.29 µM
TGI (RPMI-8226 leukemia): 4.7 µM
GI50 (RXF 393 renal): 1.76 µM
TGI (RXF 393 renal): 7.23 µM
GI50 (SF-268 CNS): 5.44 µM
TGI (SF-268 CNS): 11.4 µM
GI50 (SF-295 CNS): 1.97 µM
TGI (SF-295 CNS): 7.2 µM
GI50 (SF-539 CNS): 4.54 µM
TGI (SF-539 CNS): 9.49 µM
GI50 (SK-MEL-2 melanoma): 6.88 µM
TGI (SK-MEL-2 melanoma): 12.6 µM
GI50 (SK-MEL-28 melanoma): 0.682 µM
TGI (SK-MEL-28 melanoma): 1.29 µM
GI50 (SK-MEL-5 melanoma): 2.84 µM
TGI (SK-MEL-5 melanoma): 8.15 µM
GI50 (SK-OV-3 ovarian): 6.46 µM
TGI (SK-OV-3 ovarian): 12.1 µM
GI50 (SN12C renal): 5.38 µM
TGI (SN12C renal): 10.9 µM
GI50 (SNB-19 CNS): 6.06 µM
TGI (SNB-19 CNS): 11.5 µM
GI50 (SNB-75 CNS): 4.78 µM
TGI (SNB-75 CNS): 9.96 µM
GI50 (SR leukemia): 0.963 µM
TGI (SR leukemia): 3.33 µM
GI50 (SW-620 colon): 0.757 µM
TGI (SW-620 colon): 1.75 µM
GI50 (T-47D breast): 2.89 µM
TGI (T-47D breast): 9.27 µM
GI50 (TK-10 renal): 6.19 µM
TGI (TK-10 renal): 11.7 µM
GI50 (U251 CNS): 5.31 µM
TGI (U251 CNS): 11.3 µM
GI50 (UACC-257 melanoma): 1.44 µM
TGI (UACC-257 melanoma): 5.62 µM
GI50 (UACC-62 melanoma): 1.09 µM
TGI (UACC-62 melanoma): 3.57 µM
GI50 (UO-31 renal): 4.66 µM
TGI (UO-31 renal): 9.6 µM
